According to patent EP1212309B1, “CASPASE INHIBITOR” (LG Chem Investment, Ltd., priority 1999, dated 2001):

Experiments:
[1] = target: T1, caspase-1 (Homo sapiens, UniProt P29466); assay: Screening on caspases inhibiting activity (recombinant enzyme, fluorogenic AMC substrate); assay type: biochemical; details: Irreversible Inhibitors; for kinact/KI: read-out: Kobs/[I] for caspase-1
T1 construct: made in house
T1 sequence (P29466 120-297 limits assumed): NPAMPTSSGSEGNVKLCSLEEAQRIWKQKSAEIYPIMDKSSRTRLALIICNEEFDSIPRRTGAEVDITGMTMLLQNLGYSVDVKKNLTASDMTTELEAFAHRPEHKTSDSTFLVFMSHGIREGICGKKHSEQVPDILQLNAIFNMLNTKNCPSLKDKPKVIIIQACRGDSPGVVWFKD
T1 sequence (P29466 317-404 limits assumed): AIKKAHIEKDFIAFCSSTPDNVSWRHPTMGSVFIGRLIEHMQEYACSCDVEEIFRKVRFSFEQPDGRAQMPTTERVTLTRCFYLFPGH
Protocol: (§1) In the present experiment, recombinant caspases were purified from a transformed bacterium after human caspase genes were cloned into the expression vector pET, and then used in the experiment (Thornberry, N.A. et .al. Nature, 1992, 356, 768. Thombeny, N.A. Methods in Enzymology, 1994, 615.).
(§2) Enzymatic activity was measured by a known procedure (Walker N.P.C. et al., Cell 1994, 78, 343). Briefly, 10 ng of recombinant protein was mixed with 50 mM Tris(pH 7.0), 1mM DTT, 0.5 mM EDTA, 10% Glycerol buffer containing 1∼100 µM of enzyme substrate, Ac-YVAD-AMC or Ac-DEVD-AMC and then the changes by isolated AMC at 37°C were recorded. The inhibitory activity for caspases was calculated from the early enzyme reaction rate by measuring the changes with fluorescence excited at […] and emitted at 460 nm (Range; Ki<100nM).

[2] = target: T2, caspase-3 (Homo sapiens, UniProt P42574); assay: as above; assay type: biochemical; details: Irreversible Inhibitors; for kinact/KI: read-out: Kobs/[I] for caspase-3
T2 construct: made in house
T2 sequence (P42574 29-175 limits assumed): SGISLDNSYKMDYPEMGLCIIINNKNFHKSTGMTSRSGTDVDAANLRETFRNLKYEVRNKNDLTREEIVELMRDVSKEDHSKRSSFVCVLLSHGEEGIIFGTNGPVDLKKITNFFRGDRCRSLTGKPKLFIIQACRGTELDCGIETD
T2 sequence (P42574 176-277 limits assumed): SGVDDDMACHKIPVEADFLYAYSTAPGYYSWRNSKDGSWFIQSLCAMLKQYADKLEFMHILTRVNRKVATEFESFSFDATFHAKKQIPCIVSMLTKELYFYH
Protocol: as §1, §2

[3] = system: Jurkat T cell; assay: MTT assay of cell death induced by Anti-FAS antibody CH11; assay type: cell-based; details: Homo sapiens; Jurkat T cell treated with Anti-FAS antibody CH11, MTT; read-out: ED50 FAS Induced cell death
[4] = system: anti-Fas antibody-induced liver apoptosis; assay: Anti-Fas antibody (Jo2)-induced liver apoptosis and lethality in mice; assay type: in vivo, C57BL/6 female mice
Protocol: […] C57BL/6 female mice(18-20 g) were injected i.p. with compound 33MP dissolved in vehicle which consists of olive oil and 10% DMSO, or vehicle alone, at 1 hr before i.v. injection with 10 µg of Anti-Fas antibody (Jo2). Following 4 hrs of i.v. injection with Jo2 antibody, animals were placed under inhaled isoflurane anesthesia for blood collection and liver isolation. Mice were also i.p. injected with 0.2 µg/20 g of TNFα and 12 mg/20 g of D-galactosamine(TNFα /GalN) and compound 33MP or its salt form (Compound 33MP-Na). 8 hrs later, blood and liver tissues were isolated from anesthetized animals. The liver tissues were snap-frozen and stored at -80° C until use. Plasma was isolated from blood by centrifugation at 12,000 x g for 10 min at 4° C and stored at -80° C. In some experiments for animal mortality, mice were i.p. injected with TNFα /GalN and caspase inhibitor was injected 1 hr before, simultaneously, 2 hrs, or 4 hrs after TNFα /GalN injection.
Whole tissues (0.5 g) were homogenated in ice-cold lysis buffer (5 mM Tris, 20 mM EDTA, 0.5% Triton-X 100, pH8.0). The lysate was centrifuged at 12,000 x g for 20 min at 4° C. The supernatant was obtained and extracted twice with a mixture of phenol and chloroform. One-tenth volume of 3 M sodium acetate was added to the solution, and DNA was precipitated by adding an equal volume of isopropanol. After storing at -20° C overnight, a DNA pellet was obtained by centrifugation at 12,000 x g for 15 min. at 4 ° C and washed twice with 75% ethanol. The pellet was dried and resuspended in 100 µl of 20 mM Tris-HCl, pH 8.0. After digesting RNA with DNase-free RNase (0.1 mg/ml) at 37 ° C for 1 hr, samples […] were electrophoresed through a 1.2% agarose gel in […] Tris borate + EDTA (TBE), pH 8.0 buffer. DNA was photographed under visualized with UV light.
Liver tissues were homogenated in 10 mM HEPES buffer containing protease inhibitors (5 µg/ml aprotinin, 5 µg/ml pepstatin A, 10 µg/ml leupeptin, and 0.5 mM PMSF) and lysed by three freeze/thaw cycles. The cytosolic fraction was obtained by centrifugation at 12,000 x g for 20 min. at 4" C. Protein concentration was determined with BCA protein assay reagent (pierce, Rockford, IL). Cytosol containing 200 µg protein was combined in 96-well plate with […] of synthetic substrate Ac-DEVD-pNA in 150 µl of 100 mM HEPES, pH 7.4, containing the protease inhibitors, and the reaction was conducted for 1 hr at 37° C. […] Plasma level of aspartate aminotransferase (AST) was analyzed by spectrophotometry using each enzyme assay kit (Sigma).

[5] = system: TNFα -mediated liver toxicity; assay: TNFα-mediated liver toxicity and mortality in mice; assay type: in vivo, C57BL/6 female mice
[6] = mice treated with TNFα /ActD (so in the source)

CC(C)[C@H](NC(=O)CCc1ccccc1)C1=NOC(Cc2ccccc2)(C(=O)N[C@@H](CC(=O)O)C(=O)COC(=O)c2c(Cl)cccc2Cl)C1 (mixture of isomers) [Compound 32, (3S)-3-{3-[2-methyl-(1S)-1-(phenylethylcarbonylamino)-propyl]-5-phenylmethyl-4,5-dihydro-isoxazole-5-carbonylamino}-4-keto-5-(2,6-dichlorobenzoyloxy)-pentanoic acid]
kinact/KI [1]: 130000 M⁻¹ s⁻¹ | kinact/KI [2]: 114 M⁻¹ s⁻¹ | EC50 [3]: 1 to 10 µM

CC1(C(=O)N[C@@H](CC(=O)O)C(=O)COC(=O)c2c(Cl)cccc2Cl)CC([C@H](CCC(=O)O)NC(=O)CCC(=O)O)=NO1 (single isomer, unassigned) [Compound 72]
kinact/KI [1]: 30800 M⁻¹ s⁻¹ | kinact/KI [2]: 176000 M⁻¹ s⁻¹ | EC50 [3]: 1 to 10 µM

CCCC1(C(=O)N[C@@H](CC(=O)O)C(=O)COC(=O)c2c(Cl)cccc2Cl)CC([C@@H](NC(=O)CCC(=O)O)C(C)C)=NO1 (single isomer, unassigned) [Compound 76]
kinact/KI [1]: 14000 M⁻¹ s⁻¹ | kinact/KI [2]: 197000 M⁻¹ s⁻¹ | EC50 [3]: 1 to 10 µM

CCCCC1(C(=O)N[C@@H](CC(=O)O)C(=O)COC(=O)c2c(Cl)cccc2Cl)CC([C@@H](NC(=O)CCC(=O)O)C(C)C)=NO1 (single isomer, unassigned) [Compound 80]
kinact/KI [1]: 14900 M⁻¹ s⁻¹ | kinact/KI [2]: 1.14e+06 M⁻¹ s⁻¹ | EC50 [3]: 1 to 10 µM

CC(C)[C@H](NC(=O)c1cccc2ccccc12)C1=NOC(Cc2ccccc2)(C(=O)N[C@@H](CC(=O)O)C(=O)COC(=O)c2c(Cl)cccc2Cl)C1 (stereo partly drawn) [Compound 33mp, (3S)-3-{3-[2-methyl-(1S)-1-(1-naphthalenecarbonylamino)-propyl]-5-phenylmethyl-4,5-dihydro-isoxazole-5-carbonylamino}-4-keto-5-(2,6-dichlorobenzoyloxy)-pentanoic acid]
kinact/KI [1]: 807000 M⁻¹ s⁻¹ | kinact/KI [2]: 500 M⁻¹ s⁻¹ | EC50 [3]: 1 to 10 µM | liver apoptosis as determined by DNA fragmentation ([4]; 0.4 mg/20 g, 1 mg/20 g i.p. 1 hr before anti-Fas antibody, 4 hrs after antibody): suppressed the liver apoptosis in a dose-dependent manner | release of liver enzyme AST ([4]; anti-Fas antibody-treated mice): significantly suppressed | reduction of mortality ([4]; anti-Fas antibody-treated mice (85% died within 24 hrs without treatment)): about 30% | caspase-3-like activity in liver tissues ([4]; anti-Fas antibody-treated mice, Ac-DEVD-pNA): abrogated | animals survived ([5]; TNFα /ActD-mediated mouse mortality, within 24 hrs): 80% | DNA fragmentation in liver tissues [5, 6]: significantly reduced | caspase-3-like activity in liver [5, 6]: suppressed | release of AST [5, 6]: suppressed

CC(C)[C@H](NC(=O)c1ccc2ccccc2n1)C1=NOC(Cc2ccccc2)(C(=O)N[C@@H](CC(=O)O)C(=O)COC(=O)c2c(Cl)cccc2Cl)C1 (stereo partly drawn) [Compound 42mp, (3S)-3-{3-[2-methyl-(1S)-1-(quinoline-2-yl-carbonylamino)-propyl]-5-phenylmethyl-4,5-dihydro-isoxazole-5-carbonylamino}-4-keto-5-(2,6-dichlorobenzoyloxy)-pentanoic acid]
kinact/KI [1]: 408000 M⁻¹ s⁻¹ | kinact/KI [2]: 160 M⁻¹ s⁻¹ | EC50 [3]: 1 to 10 µM

CC(C)[C@H](NC(=O)c1cccc2ccccc12)C1=NOC(Cc2ccccc2)(C(=O)N[C@@H](CC(=O)O)C(=O)COC(=O)c2c(F)cccc2F)C1 (stereo partly drawn) [Compound 58, (3S)-3-{3-[2-methyl-(1S)-1-(naphthalene-1-carbonylamino)-propyl]-5-phenylmethyl-4,5-dihydro-isoxazole-5-carbonylamino}-4-keto-5-(2,6-difluorobenzoyloxy)-pentanoic acid]
kinact/KI [1]: 577000 M⁻¹ s⁻¹ | kinact/KI [2]: 371 M⁻¹ s⁻¹ | EC50 [3]: 1 to 10 µM

CC(C)[C@H](NC(=O)CCC(=O)O)C1=NOC(Cc2ccccc2)(C(=O)N[C@@H](CC(=O)O)C(=O)COC(=O)c2c(Cl)cccc2Cl)C1 (stereo partly drawn) [Compound 86, (3S)-3-{3-[2-methyl-(1S)-1-(succinoylamino)-propyl]-5-phenylmethyl-4,5-dihydro-isoxazole-5-carbonylamino}-4-keto-5-(2,6-dichlorobenzoyloxy)-pentanoic acid]
Kobs/[I] for caspase-1 [1]: 7560 M⁻¹ s⁻¹ | Kobs/[I] for caspase-3 [2]: 28000 M⁻¹ s⁻¹

COCC1(C(=O)N[C@@H](CC(=O)O)C(=O)COC(=O)c2c(Cl)cccc2Cl)CC([C@@H](NC(=O)CCC(=O)O)C(C)C)=NO1 (stereo partly drawn) [Compound 87, (3S)-3-{3-[2-methyl-(1S)-1-(succinoylamino)-propyl]-5-methoxymethyl-4,5-dihydro-isoxazole-5-carbonylamino}-4-keto-5-(2,6-dichlorobenzoyloxy)-pentanoic acid]
Kobs/[I] for caspase-1 [1]: 3400 M⁻¹ s⁻¹ | Kobs/[I] for caspase-3 [2]: 27400 M⁻¹ s⁻¹
